A word on the solubility: it is how much of the substance goes into solution per volume.

Consider two molecules from patent publication US20060140991A1, “Pharmaceutical preparations having an improved solubility” (AJINOMOTO CO. INC, priority 2003, published 2006).

Values after ≈ are worked out from the molar mass of the structure shown.

Data set [1] in a line: Solubilization by fixing the micelle structure: drug concentration in the clear neutral liquid. Conditions: for clear liquid obtained: no alkali; for clear liquid obtained / concentration of AP-1067 in clear neutral liquid containing solubilized drug: 45° C.; for concentration of AP-1067 in clear neutral liquid containing solubilized drug: pH adjusted to neutral. Format: physicochemical. Here is the method:
About 10 mg of AP-1067 was dispersed into 1 mL of water. An aqueous solution of sodium hydroxide was added thereto to adjust the solution to pH=13 or above. The suspension was heated up to 45° C. to obtain a clear alkali aqueous liquid containing solubilized AP-1067 wherein a micelle of AP-1067 was formed. (AP-1067 concentration: about 10 mg/mL)
40 mg of sodium dodecyl sulfate (SDS) was added to the alkali aqueous liquid to fix the formed micelle structure. Then, an aqueous solution of hydrochloric acid was added dropwise thereto and its pH was adjusted to neutral to obtain a clear neutral liquid containing slubilized AP-1067 wherein the micelle of AP-1067 existed in the fixed manner. The concentration of AP-1067 at that time was 9.1 mg/mL.
About 10 mg of AP-1067 was dispersed into 1 mL of water. An aqueous solution of sodium hydroxide was added thereto to adjust the solution to pH=13 or above. The suspension was heated up to 45° C. to obtain a clear alkali aqueous solution of AP-1067 wherein a micelle of AP-1067 was formed. (AP-1067 concentration: about 10 mg/mL)
100 mg of Polysorbate 80 was added to the alkali aqueous solution to fix the formed micelle structure. Then, an aqueous solution of hydrochloric acid was added dropwise thereto and its pH was adjusted to neutral to obtain a clear neutral liquid containing solubilized AP-1067 wherein the micelle of AP-1067 existed in the fixed manner. The concentration of AP-1067 at that time was 10.3 mg/mL.
10 mg of AP-1067 and 40 mg of SDS were dispersed into 1 mL of water. The suspension was heated up to 45° C., and the ultrasonic treatment was conducted for 1.5 hours.
10 mg of AP-1067 and 100 mg of Polysorbate 80 were dispersed into 1 mL of water. The suspension was heated up to 45° C., and the ultrasonic treatment was conducted for 1.5 hours.
10 mg of APC0576 and 83 mg of cetylpyridinium chloride monohydrate were dispersed and dissolved into 1 mL of an aqueous solution of 1.5 mol/L hydrochloric acid. The suspension was heated up to 50° C., and the ultrasonic treatment was conducted thereto to obtain a clear acidic aqueous liquid containing solubilized APC0576 wherein a micelle of the poorly-soluble drug APC0576 existed in the fixed manner. (APC0576 concentration: about 10 mg/mL)
An aqueous solution of 10 mol/L sodium hydroxide was added dropwise to the acidic aqueous liquid to adjust its pH to nearly neutral to obtain about 7 mg/mL of a clear liquid containing solubilized APC0576 wherein the micelle of APC0576 existed in the fixed manner. (see FIG. 3)
10 mg of APC0576 and 85 mg of cetylpyridinium chloride monohydrate were dissolved into 1 mL of water. The suspension was heated up to 50° C., and the ultrasonic treatment was conducted for 1.5 hours. […] (see FIG. 3)

Data set [2] in a line: Solubility in water at room temperature.

In the case of `CC1(C)C[C@@H]1C(=O)Nc1ccc(Oc2ccc(NC(=O)[C@H]3CC3(C)C)cn2)cc1` [APC0576, 5-(((S)-2,2-dimethyl-cyclopropancarbonyl)amino)-2-(4-(((S)-2,2-dimethylcyclopropancarbonyl)amino)phenoxy)pyridine], in data set [1] (Comparative Example 3: 10 mg drug and 85 mg cetylpyridinium chloride monohydrate in 1 mL water, no acid, 50° C., ultrasonic 1.5 hours), the “clear solubilized solution obtained” value is reported as “could not be obtained”. The “concentration of clear liquid containing solubilized APC0576” value in data set [1] (Example 3: 83 mg cetylpyridinium chloride monohydrate, 1.5 mol/L hydrochloric acid, 50° C., ultrasonic, pH adjusted to nearly neutral) is reported as “about 7 mg/mL”. The molecule also gave a solubility in data set [2] of approximately 1.6 µg/mL (≈ 4.07 µM).
`Cl.NS(=O)(=O)c1ccc(/C=C/CN2CCC(=C3c4ccccc4C=Cc4ccccc43)CC2)cc1` [AP-1067, (4-(5H-dibenzo[a,d]cyclohepten-5-ylidene)-1-[3-[4-sulfamoylphenyl]-2(E)-propenyl]-piperidine, monohydro-chloride)]: the clear liquid obtained entry is “could not be obtained” in data set [1] (Comparative Example 1: 10 mg drug and 40 mg SDS in 1 mL water, ultrasonic 1.5 hours); “could not be obtained” in data set [1] (Comparative Example 2: 10 mg drug and 100 mg Polysorbate 80 in 1 mL water, ultrasonic 1.5 hours). For the same molecule, the “concentration of AP-1067 in clear neutral liquid containing solubilized drug” value came out at 9100 µg/mL in data set [1] (Example 1: micelle formed at pH=13 or above, fixed with 40 mg SDS) and 10300 µg/mL in data set [1] (Example 2: micelle formed at pH=13 or above, fixed with 100 mg Polysorbate 80). In data set [2], this molecule registered a solubility of approximately 30 µg/mL.
